One series concerns the target Full sequence FAK (Homo sapiens (Human), UniProt Q05397). In words: Measurement of FAK kinase activity (ULight-LANCE assay). Type of series: biochemical. The following applies: TR-FRET, 3 nM FAK, 10 μM ATP; read-out: FAK inhibition activity (IC50). The protocol: ULight-poly GT (PerkinElmer #TRF0100-D), Eu-anti-phospho-Tyr (PT66) (PerkinElmer #AD0068) and Lance detection buffer (PerkinElmer #CR-97-100) were purchased from PerkinElmer. […] 4× ULight-poly GT was adjusted to a final concentration of 100 nM. ATP (Sigma #A2383) was adjusted to a final concentration of 10 μM and in 2.5 μL aliquots. The test compound was sequentially diluted at 12 concentrations and treated with an amount of 0.5 μL. After shaking well and allowing to react at room temperature for 60 minutes, 5 μL of ethylenediaminetetraacetic acid (EDTA, final concentration 40 mM) diluted in Lance detection buffer (Lance detection buffer) was added and the mixture was left at room temperature for 5 minutes to stop the reaction. After adding 4× Eu-anti-phospho-Tyr (PT66) phosphorylated antibody diluted to a final concentration of 2 nM in detection buffer with an amount of 5 μL, and reaction was performed at room temperature for 60 minutes.

Series [1] has as its system HT-29 human colon adenocarcinoma cells. In words: Inhibition of proliferation of HT-29 human colon adenocarcinoma cells (MTT assay). The following applies: HT-29 cells, read-out: Inhibition activity against proliferation of the HT-29 cells (GI50). Type of series: cell-based. The protocol:
HT-29 human colon adenocarcinoma cells were cultured in DMEM [10% FBS, 1% penicillin/streptomycin] at 37° C. in the presence of 5% CO2. The cultured HT-29 cells were harvested with 0.05% trypsin-0.02% EDTA and seeded in a 96-well plate at 5×10^3 cells per well.
3-(4,5-Dimethylthiazol-2-yl)-2,5-diphenyltetrazolium bromide (MTT) assay (CellTiter 96 Assay, Promega) was used to measure cell viability. After adding 15 μL of a dye per well and culturing for 2 hours, the cells were treated with 100 μL of a stop solution and absorbance was measured 24 hours later. The test compound was treated a day after plating. The test compound had been sequentially diluted at 12 concentrations from a 10 mM stock solution using sterilized dimethylsulfoxide (DMSO) and treated with an amount of 0.5 μL. Absorbance at 590 nm was recorded using EnVision2103, and GI50 value was calculated using GraphPad Prism 4.0 software.

The test system of another series is tumor. The following applies: concurrent administration with docetaxel, animal model, P values<0.01; cited from earlier work.
In series [2] the test system is prostate cancer PC-3, breast cancer BT-474, colon LoVo, lung cancer NCI-H460, glioblastoma U-87 MG and pancreatic cancer BxPC-3 cells. The following applies: cited from earlier work.

Sequence of Full sequence FAK (Q05397 whole entry): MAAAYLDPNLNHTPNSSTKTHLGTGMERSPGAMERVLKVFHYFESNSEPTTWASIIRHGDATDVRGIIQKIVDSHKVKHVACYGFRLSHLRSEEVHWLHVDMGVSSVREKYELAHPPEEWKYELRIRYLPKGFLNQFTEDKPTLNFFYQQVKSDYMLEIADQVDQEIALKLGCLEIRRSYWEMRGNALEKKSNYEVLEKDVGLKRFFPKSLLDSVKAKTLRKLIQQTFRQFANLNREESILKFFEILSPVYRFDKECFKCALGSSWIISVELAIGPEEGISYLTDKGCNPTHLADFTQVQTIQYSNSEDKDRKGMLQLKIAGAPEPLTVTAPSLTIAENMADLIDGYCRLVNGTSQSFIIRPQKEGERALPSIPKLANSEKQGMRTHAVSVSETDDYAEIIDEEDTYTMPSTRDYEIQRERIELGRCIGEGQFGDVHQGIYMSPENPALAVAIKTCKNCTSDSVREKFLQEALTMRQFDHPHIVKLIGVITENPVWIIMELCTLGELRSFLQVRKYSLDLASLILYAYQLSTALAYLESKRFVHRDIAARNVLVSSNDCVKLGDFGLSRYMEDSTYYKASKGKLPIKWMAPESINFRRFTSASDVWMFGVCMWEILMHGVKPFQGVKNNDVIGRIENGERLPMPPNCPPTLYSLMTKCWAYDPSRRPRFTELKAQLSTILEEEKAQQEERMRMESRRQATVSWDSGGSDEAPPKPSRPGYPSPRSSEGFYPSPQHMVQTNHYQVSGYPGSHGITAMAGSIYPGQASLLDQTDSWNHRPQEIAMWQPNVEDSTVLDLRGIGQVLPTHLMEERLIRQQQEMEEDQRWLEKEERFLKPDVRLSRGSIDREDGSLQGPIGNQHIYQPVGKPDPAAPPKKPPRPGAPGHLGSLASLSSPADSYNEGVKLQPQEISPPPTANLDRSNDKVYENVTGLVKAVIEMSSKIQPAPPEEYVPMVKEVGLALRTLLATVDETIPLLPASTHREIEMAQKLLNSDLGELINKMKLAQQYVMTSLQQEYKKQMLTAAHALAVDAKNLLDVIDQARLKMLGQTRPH

`Nc1nc(Nc2ccc(N3CCOCC3)nc2)nc2c(-c3cnc4ccccc4c3)csc12` [Example 42, N^2-(6-morpholinopyridin-3-yl)-7-(quinolin-3-yl)thieno[3,2-d]pyrimidin-2,4-diamine]: the IC50 at Full sequence FAK was below 10 µM. In addition, the GI50 in series [1] is below 10 µM.

On to `CCc1csc2c(NCc3ccccc3)nc(NCCN3CCOCC3)nc12` [Example 48, N^4-benzyl-7-ethyl-N^2-(2-morpholinoethyl)thieno[3,2-d]pyrimidin-2,4-diamine], for which the IC50 on Full sequence FAK is below 10 µM. The GI50 in series [1] is below 10 µM.

For `C=Cc1csc2c(NCc3ccccc3)nc(NCCN3CCOCC3)nc12` [Example 46, N^4-benzyl-N^2-(2-morpholinoethyl)-7-vinylthieno[3,2-d]pyrimidin-2,4-diamine], the IC50 at Full sequence FAK is below 10 µM. Moreover, in series [1], the GI50 is below 10 µM.

With `CCN1CCN(c2ccc(Nc3nc(N)c4scc(-c5cccc(C(=O)NC)c5)c4n3)cc2)CC1` [Example 6, 3-(4-amino-2-(4-(4-ethylpiperazin-1-yl)phenylamino)thieno[3,2-d]pyrimidin-7-yl)-N-methylbenzamide], the IC50 on Full sequence FAK was below 10 µM. Further, the GI50 in series [1] is below 10 µM.

Regarding `C#Cc1csc2c(N[C@H](C)c3ccccc3)nc(NC[C@H](C)O)nc12` [Example 45, (S)-1-(7-ethynyl-4-((R)-1-phenylethylamino)thieno[3,2-d]pyrimidin-2-ylamino)propan-2-ol], on Full sequence FAK, the IC50 is below 10 µM. Further, the GI50 in series [1] was below 10 µM.

Turning to `CNS(=O)(=O)c1cccc(-c2csc3c(N)nc(Nc4cc(OC)c(OC)c(OC)c4)nc23)c1` [Example 26, 3-(4-amino-2-(3,4,5-trimethoxyphenylamino)thieno[3,2-d]pyrimidin-7-yl)-N-methylbenzenesulfonamide], the IC50 on Full sequence FAK was below 10 µM. For the same compound, in series [1], the GI50 was below 10 µM.

With `CNC(=O)c1cccc(-c2csc3c(N)nc(Nc4ccc(N5CCOCC5)nc4)nc23)c1` [Example 2, 3-(4-amino-2-(6-morpholinopyridin-3-ylamino)thieno[3,2-d]pyrimidin-7-yl)-N-methylbenzamide], the IC50 at Full sequence FAK was below 10 µM. Besides, the GI50 in series [1] is below 10 µM.

As to `CNC(=O)c1ccccc1Nc1nc(Nc2ccc(N3CCOCC3)cc2OC)ncc1Cl` [TAE226], in the series on tumor, the tumor reduction is on record as 85-97%.

For `CNC(=O)c1cccc(-c2csc3c(N)nc(Nc4ccc(N5CCC(N6CCCC6)CC5)cc4)nc23)c1` [Example 7, 3-(4-amino-2-(4-(4-(pyrrolidin-1-yl)piperidin-1-yl)phenylamino)thieno[3,2-d]pyrimidin-7-yl)-N-methylbenzamide], on Full sequence FAK, the IC50 is below 10 µM. Further, the GI50 in series [1] was below 10 µM.

Take `COc1cc(Nc2nc(N)c3scc(-c4cccc(NC(=O)C5CC5)c4)c3n2)cc(OC)c1OC` [Example 15, N-(3-(4-amino-2-(3,4,5-trimethoxyphenylamino)thieno[3,2-d]pyrimidin-7-yl)phenyl)cyclopropanecarboxamide]: the IC50 on Full sequence FAK was below 10 µM. Further, in series [1], the GI50 was below 10 µM.

For `CCS(=O)(=O)Nc1cccc(-c2csc3c(N)nc(Nc4cc(OC)c(OC)c(OC)c4)nc23)c1` [Example 17, N-(3-(4-amino-2-(3,4,5-trimethoxyphenylamino)thieno[3,2-d]pyrimidin-7-yl)phenyl)ethanesulfonamide], the IC50 at Full sequence FAK was below 10 µM. The GI50 in series [1] was below 10 µM.

In the case of `CCN1CCN(c2ccc(Nc3nc(N)c4scc(-c5cccc(NS(C)(=O)=O)c5)c4n3)cn2)CC1` [Example 27, N-(3-(4-amino-2-(6-(4-ethylpiperazin-1-yl)pyridin-3-ylamino)thieno[3,2-d]pyrimidin-7-yl)phenyl)methanesulfonamide], at Full sequence FAK, the IC50 was below 10 µM. Besides, the GI50 in series [1] was below 10 µM.

Turning to `C=Cc1csc2c(N[C@H](C)c3ccccc3)nc(NCCN3CCOCC3)nc12` [Example 47, (R)—N^2-(2-morpholinoethyl)-N^4-(1-phenylethyl)-7-vinylthieno[3,2-d]pyrimidin-2,4-diamine], the IC50 on Full sequence FAK is below 10 µM. The GI50 in series [1] is below 10 µM.

Turning to `C#Cc1csc2c(NCc3ccccc3)nc(NC[C@H](C)O)nc12` [Example 44, (S)-1-(4-(benzylamino)-7-ethynylthieno[3,2-d]pyrimidin-2-ylamino)propan-2-ol], the GI50 in series [1] was below 10 µM.

With `CCN1CCN(c2ccc(Nc3nc(N)c4scc(-c5cnc6ccccc6c5)c4n3)cc2)CC1` [Example 41, N^2-(4-(4-ethylpiperazin-1-yl)phenyl)-7-(quinolin-3-yl)thieno[3,2-d]pyrimidin-2,4-amine], the IC50 on Full sequence FAK is below 10 µM. The GI50 in series [1] was below 10 µM.

On to `CNC(=O)c1cccc(-c2csc3c(N)nc(Nc4ccc(N5CCC(O)CC5)cc4)nc23)c1` [Example 3, 3-(4-amino-2-(4-(4-hydroxypiperidin-1-yl)phenylamino)thieno[3,2-d]pyrimidin-7-yl)-N-methylbenzamide], for which the concentration for half-maximal inhibition (IC50) on Full sequence FAK was below 10 µM. Also, in series [1], the GI50 was below 10 µM.

In the case of `CN(c1ncccc1CNc1nc(Nc2ccc3c(c2)CC(=O)N3)ncc1C(F)(F)F)S(C)(=O)=O` [PF-562271], the “inhibition of tumor growth or tumor degeneration” value in series [2] (human tumor xenograft, 25-100 mg/kg p.o.) was 42-90%. In addition, the toxicity observed entry in series [2] (in vivo) is listed as “No special toxicity has been observed”.

With `CCN1CCN(c2ccc(Nc3nc(N)c4scc(-c5cnc6ccccc6c5)c4n3)cn2)CC1` [Example 39, N^2-(6-(4-ethylpiperazin-1-yl)pyridin-3-yl)-7-(quinolin-3-yl)thieno[3,2-d]pyrimidin-2,4-diamine], on Full sequence FAK, the IC50 is below 10 µM. In addition, the GI50 in series [1] was below 10 µM.

Turning to `CCN1CCN(c2cccc(Nc3nc(N)c4scc(-c5cnc6ccccc6c5)c4n3)c2)CC1` [Example 43, N^2-(3-(4-ethylpiperazin-1-yl)phenyl)-7-(quinolin-3-yl)thieno[3,2-d]pyrimidin-2,4-diamine], the IC50 at Full sequence FAK is below 10 µM. Moreover, the GI50 in series [1] was below 10 µM.
